SMILES strings stand for the structures. pIC50: −log10 of the molar value. Where “and” joins values, the source holds several entries; their conditions need not be identical. Equal entries are not always repeated. Where two headings read alike, the source gives them in different places. Bounds are passed on as bounds.

The target in one assay is T1, human GPR61 N137A (Homo sapiens, UniProt Q9BZJ8, N137A).
T1 construct: expressed in transfected cells; host or cells: CHO-K1, transient (Fugene6)
Briefly: Functional cAMP assay (HTRF), transiently transfected CHO-K1 cells, GPR61 N137A mutant. Conditions: for pIC50: Fig. 3e table. Format: cell-based. The arrangement: key to cAMP response (Figure 3e source data): nM cAMP per well, from standard curve. The text has this:
(§1) The human GPR61 (reference sequence NM_031936.4) cDNA was synthesized and subcloned into pcDNA5/FRT/TO (Thermo Fisher, Pittsburgh, PA). The pcDNA5/FRT/TO/ human GPR61 plasmid was then transfected into the Flp-In™-CHO Cell Line (Thermo Fisher, Pittsburgh, PA) and a doxycycline-inducible clonal cell line was selected (CHO TREx hGPR61 WT). Sequences encoding untagged and HiBit/hemagglutinin (HA)-tagged versions of the wild-type human GPR61 were synthesized and cloned into pcDNA3.1. The HiBit ([…]) and HA ([…]) tags were sequentially included after the N-terminal initiator methionine. Four single amino acid substitutions (N137A, R140A, V288A, N345A) were then introduced in the untagged and tagged human GPR61 constructs using site-specific mutagenesis. The nucleotide sequences of all receptor constructs were confirmed by automated DNA sequencing.
Parental CHO-K1 cells were maintained at 37 °C in a humidified environment (5% CO2) and grown in Dulbecco’s Modified Eagle Medium (DMEM) F-12 media (Gibco, 11320033) supplemented with 10% FBS, 1% Glutamax (Gibco, 35050061) and 100units/ml penicillin and streptomycin (Gibco, 15140122. Cells were dissociated using a cell dissociation solution (Gibco, 13151-014), counted, and resuspended in complete culture media without antibiotics. Cells were then transiently transfected using Fugene6 (Promega) in a 384-well plate format (Corning, 3570). For each well, 7500 cells were transfected with 5 ng of receptor plasmid, 20 ng of carrier DNA (Promega, PAE4881) and 0.075 μl Fugene6 in a final volume of 25 μl. Fugene6 and DNA were separately diluted in Optimem media (Gibco, 31985070) (1.25 μl final volume each). Fugene6 and DNA solutions were then combined and incubated for 15 min at room temperature. The cell containing solution (22.5 μl) was then added and transfection reactions were mixed and transferred to the assay plate. Following 24 h incubation at 37 °C, wells were rinsed once and 25 μl of HiBit assay buffer (Phenol-red free DMEM F-12 media containing 2% FBS) was added per well. Surface and total receptor expression was measured separately by adding 25 μl per well of the extracellular (Promega, PRN2421) and lytic (Promega, PRN3040) assay solutions, respectively. Plates were incubated for 10 min at room temperature on a shaker and luciferase activity was measured using an EnVision plate reader (Perkin Elmer, Chicago, IL). Expression was normalized as percent of the wild-type receptor signal. Statistical comparisons of expression levels observed with WT versus GPR61 mutants were made by one-way analysis of variance with Dunnett’s post hoc test.
A homogeneous Time-Resolved Fluorescence (HTRF) assay (Perkin Elmer, Dynamic2 kit #) was used to assess receptor basal and inverse agonist activity at human GPR61, GPR62, and GPR101. For routine inverse agonist screening frozen CHO TREx human GPR61, GPR62 and GPR101 cells were used. Cells were thawed, resuspended in complete assay media (DMEM F-12, 10% HI FBS, 100 μg/mL Normocin, 700 μg/mL Hygromycin B and 15 μg/mL Blasticidin) containing 1ug/ml doxycycline, plated in white 384 well plates (Corning, 3570) at a density of 750 cells/well (25 μl/ well) and cultured at 37 °C in an incubator overnight. For studies assessing basal and inverse agonist activity at human GPR61 mutants, CHO-K1 cells were transiently transfected using Fugene6, plated in white 384 well plates (7500 cells/well) and grown overnight at 37 °C, as described for receptor expression studies. […]
(Cyclic AMP is a second messenger, typically raised through Gs and lowered through Gi signalling.)

Another assay addresses T2, human GPR61 R140A (Homo sapiens, UniProt Q9BZJ8, R140A).
T2 construct: expressed in transfected cells; host or cells: CHO-K1, transient (Fugene6)
Briefly: Functional cAMP assay (HTRF), transiently transfected CHO-K1 cells, GPR61 R140A mutant. The assay is classed as cell-based.
Source text: as §1
Parental CHO-K1 cells were maintained at 37 °C in a humidified environment (5% CO2) and grown in Dulbecco’s Modified Eagle Medium (DMEM) F-12 media (Gibco, 11320033) supplemented with 10% FBS, 1% Glutamax (Gibco, 35050061) and 100units/ml penicillin and streptomycin (Gibco, 15140122. Cells were dissociated using a cell dissociation solution (Gibco, 13151-014), counted, and resuspended in complete culture media without antibiotics. Cells were then transiently transfected using Fugene6 (Promega) in a 384-well plate format (Corning, 3570). For each well, 7500 cells were transfected with 5 ng of receptor plasmid, 20 ng of carrier DNA (Promega, PAE4881) and 0.075 μl Fugene6 in a final volume of 25 μl. […] Surface and total receptor expression was measured separately by adding 25 μl per well of the extracellular (Promega, PRN2421) and lytic (Promega, PRN3040) assay solutions, respectively. Plates were incubated for 10 min at room temperature on a shaker and luciferase activity was measured using an EnVision plate reader (Perkin Elmer, Chicago, IL). […]
A homogeneous Time-Resolved Fluorescence (HTRF) assay (Perkin Elmer, Dynamic2 kit #) was used to assess receptor basal and inverse agonist activity at human GPR61, GPR62, and GPR101. […]

In a further assay the target is Human PDE1B1 (Homo sapiens, UniProt Q01064). Briefly: Phosphodiesterase Assay (SPA). The assay is classed as biochemical.
For a further assay, the target named is Human PDE2A1 (Homo sapiens, UniProt O00408). Briefly: Phosphodiesterase Assay (SPA). The assay is classed as biochemical.
Another assay addresses Human PDE7B (Homo sapiens, UniProt Q9NP56). Briefly: Phosphodiesterase Assay (SPA). The assay is classed as biochemical.
The target in the next assay is Acetylcholinesterase (Homo sapiens, UniProt P22303). Kind of assay: Acetylcholinesterase Assay (Ellman). Format: biochemical. Here is the method:
67 black 384 well flat -bottomed polystyrene plates. Compound/vehicle or standard (5 µL) were added
68 to wells followed by His -tagged BRD4 (10 µL; 40 nM final concentration in assay). Following a
69 15 min incubation at room temperature a propri etary Cy5 -labelled probe molecule (5 µL; 2 nM
70 final concentration in assay) was added. Following, an additional 16 h incubation at room
71 temperature fluorescence polarization measurements were made using an Envision plate reader
72 (Perkin Elmer, Waltham, MA, USA) and mP values were used for analysis .
73 Acetylcholinesterase As say
74 The assay described is based on Ellmans method, in which thiocholine produced by the action of
75 acetylcholinesterase forms a yellow color with 5,5'- dithiobis(2- nitrobenzoic acid). The intensity
76 of the product color, measured at 405 nm, is proportionate to the enzyme activity in the sample.
77 To each well of a clear 96 polystyrene plate 90 µL enzyme solution (1mU/well) or phosphate
78 buffered saline (PBS) and 10 µL compound/standard or vehicle was added. The plate was
79 incubated at room temperature for 15 min. Subsequently 100 µL of substrate/detection reagent
80 (800 µM acetylthiocholine/1mM 5,5'- dithiobis(2- nitrobenzoic acid)) was added and the plate was
81 read at the 20 min time point.
83 Human embryonic kidney (HEK) cells stably transfected with a doxycycline inducible plasmid […]

T2 sequence (Q9BZJ8 whole entry R140A): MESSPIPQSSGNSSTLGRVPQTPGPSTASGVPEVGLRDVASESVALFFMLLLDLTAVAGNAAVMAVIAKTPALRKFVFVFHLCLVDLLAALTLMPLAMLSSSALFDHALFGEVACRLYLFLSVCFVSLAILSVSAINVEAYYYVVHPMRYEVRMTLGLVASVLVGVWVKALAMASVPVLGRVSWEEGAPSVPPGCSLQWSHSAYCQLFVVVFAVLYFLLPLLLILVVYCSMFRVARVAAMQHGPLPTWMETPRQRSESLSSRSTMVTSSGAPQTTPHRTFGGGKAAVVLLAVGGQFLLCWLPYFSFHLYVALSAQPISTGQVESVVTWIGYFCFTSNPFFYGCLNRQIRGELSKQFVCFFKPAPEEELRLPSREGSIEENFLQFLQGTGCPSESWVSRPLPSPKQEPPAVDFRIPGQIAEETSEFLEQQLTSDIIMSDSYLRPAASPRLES
T1 sequence (Q9BZJ8 whole entry N137A): as the sequence (Q9BZJ8 whole entry R140A) above, with N137A, A140R counted along it
Chain of Human PDE2A1 (O00408 1-920 isoform O00408-2): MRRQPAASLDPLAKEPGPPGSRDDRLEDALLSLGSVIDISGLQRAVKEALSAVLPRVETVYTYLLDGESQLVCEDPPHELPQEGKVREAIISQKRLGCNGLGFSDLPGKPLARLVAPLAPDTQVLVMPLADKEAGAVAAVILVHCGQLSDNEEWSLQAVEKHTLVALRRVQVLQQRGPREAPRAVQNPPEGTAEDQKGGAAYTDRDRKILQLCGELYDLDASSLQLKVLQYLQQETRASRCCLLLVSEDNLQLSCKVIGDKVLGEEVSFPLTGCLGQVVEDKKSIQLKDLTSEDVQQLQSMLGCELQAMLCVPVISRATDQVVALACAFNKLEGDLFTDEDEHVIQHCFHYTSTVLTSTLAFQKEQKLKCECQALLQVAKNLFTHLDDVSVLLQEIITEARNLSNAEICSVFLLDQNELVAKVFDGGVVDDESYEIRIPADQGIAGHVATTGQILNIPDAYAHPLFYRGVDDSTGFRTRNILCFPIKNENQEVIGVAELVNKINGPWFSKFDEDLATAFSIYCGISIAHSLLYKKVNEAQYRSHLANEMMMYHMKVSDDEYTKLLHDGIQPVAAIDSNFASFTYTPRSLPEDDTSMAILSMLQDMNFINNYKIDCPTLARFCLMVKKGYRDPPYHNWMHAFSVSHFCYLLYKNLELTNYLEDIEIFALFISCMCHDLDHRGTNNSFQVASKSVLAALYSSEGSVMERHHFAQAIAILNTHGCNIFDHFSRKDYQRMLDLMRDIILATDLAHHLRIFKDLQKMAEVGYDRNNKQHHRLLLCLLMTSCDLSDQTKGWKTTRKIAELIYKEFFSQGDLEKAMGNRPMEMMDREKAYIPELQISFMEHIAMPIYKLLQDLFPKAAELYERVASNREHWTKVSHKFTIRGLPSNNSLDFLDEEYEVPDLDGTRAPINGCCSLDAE
Chain of Acetylcholinesterase (P22303 32-614, species assumed): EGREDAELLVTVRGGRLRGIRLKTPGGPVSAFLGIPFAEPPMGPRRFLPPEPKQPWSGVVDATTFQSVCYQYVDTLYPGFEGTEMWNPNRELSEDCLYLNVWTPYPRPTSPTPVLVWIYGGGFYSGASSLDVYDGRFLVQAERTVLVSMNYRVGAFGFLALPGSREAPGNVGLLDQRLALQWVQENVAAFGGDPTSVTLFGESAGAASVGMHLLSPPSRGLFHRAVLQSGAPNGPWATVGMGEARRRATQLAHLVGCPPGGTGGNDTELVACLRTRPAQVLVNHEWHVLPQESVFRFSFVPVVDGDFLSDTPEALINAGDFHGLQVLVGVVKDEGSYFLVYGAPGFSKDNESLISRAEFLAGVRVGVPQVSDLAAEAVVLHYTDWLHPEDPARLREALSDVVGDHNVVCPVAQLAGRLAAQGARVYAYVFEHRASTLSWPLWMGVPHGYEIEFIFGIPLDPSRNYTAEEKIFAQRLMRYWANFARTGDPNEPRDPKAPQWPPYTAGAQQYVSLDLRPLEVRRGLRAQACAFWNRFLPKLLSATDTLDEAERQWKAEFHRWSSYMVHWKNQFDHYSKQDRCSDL
Chain of Human PDE7B (Q9NP56 whole entry): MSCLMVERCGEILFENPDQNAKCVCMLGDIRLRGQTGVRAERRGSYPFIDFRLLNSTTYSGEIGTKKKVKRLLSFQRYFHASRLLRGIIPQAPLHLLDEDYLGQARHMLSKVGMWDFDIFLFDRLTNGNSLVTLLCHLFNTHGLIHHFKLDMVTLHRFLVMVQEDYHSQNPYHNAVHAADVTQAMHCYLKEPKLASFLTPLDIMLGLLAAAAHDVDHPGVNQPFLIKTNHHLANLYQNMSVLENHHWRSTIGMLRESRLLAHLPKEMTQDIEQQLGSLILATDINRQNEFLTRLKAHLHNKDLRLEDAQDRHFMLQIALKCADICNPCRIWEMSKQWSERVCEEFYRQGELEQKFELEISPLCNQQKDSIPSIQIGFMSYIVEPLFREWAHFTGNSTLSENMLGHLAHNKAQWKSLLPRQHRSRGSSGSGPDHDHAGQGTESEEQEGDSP
Chain of Human PDE1B1 (Q01064 whole entry): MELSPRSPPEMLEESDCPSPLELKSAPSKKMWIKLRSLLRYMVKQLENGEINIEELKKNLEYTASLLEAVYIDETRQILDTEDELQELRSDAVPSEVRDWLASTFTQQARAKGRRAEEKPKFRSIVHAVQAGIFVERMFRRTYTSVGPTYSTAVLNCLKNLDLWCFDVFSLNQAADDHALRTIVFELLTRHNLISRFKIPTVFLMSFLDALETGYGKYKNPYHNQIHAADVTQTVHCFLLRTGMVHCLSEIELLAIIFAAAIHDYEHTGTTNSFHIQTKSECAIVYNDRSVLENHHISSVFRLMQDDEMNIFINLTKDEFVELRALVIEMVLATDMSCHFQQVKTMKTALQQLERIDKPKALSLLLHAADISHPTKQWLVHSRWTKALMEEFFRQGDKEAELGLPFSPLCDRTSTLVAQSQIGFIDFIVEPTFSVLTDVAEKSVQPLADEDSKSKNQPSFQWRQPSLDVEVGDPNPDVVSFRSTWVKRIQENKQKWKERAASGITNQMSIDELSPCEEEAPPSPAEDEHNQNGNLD

In general, pIC50 refers to the negative decadic logarithm of the IC50, by convention in mol/L. With `CCOc1cc(C)nc(N(CCOC)S(=O)(=O)c2ccc(NCc3c(F)cncc3F)nc2OC)n1` [Compound 1], the “reduction of potency relative to wild-type in the cAMP assay” value on human GPR61 N137A (Asn137 to Ala mutation vs wild-type) is given as “about 100 fold”. Also, the pIC50 at human GPR61 N137A (HiBit-tagged, read-out: GPR61 cAMP IC50 (95% CI), N137A HiBit-tagged) was 5.48; on human GPR61 N137A (untagged, read-out: GPR61 cAMP IC50 (95% CI), N137A Untagged) it was 5.76; at human GPR61 R140A (Fig. 3e table, untagged, read-out: GPR61 cAMP IC50 (95% CI), R140A Untagged) it was 5.10; against Human PDE1B1 it was less than 4.40; against Human PDE2A1 it was less than 3.70; on Human PDE7B, 5.20. The pIC50 against Acetylcholinesterase is less than 4.30. Further, the “cAMP response (Figure 3e source data)” value is 4.93 and 5.62 and 3.82 and 3.87 and 6.18 and 6.86 at human GPR61 N137A (HiBit N137A, concentration -6.5); 4.76 and 5.49 and 3.72 and 4.04 and 6.75 and 6.55 at human GPR61 N137A (HiBit N137A, concentration -7.5); 6.63 and 6.17 and 3.76 and 4.15 and 6.97 and 7.08 on human GPR61 N137A (HiBit N137A, concentration -8); 2.87 and 4.76 and 3.00 and 3.25 and 3.54 on human GPR61 N137A (HiBit N137A, concentration -9); 4.52 and 4.56 and 3.59 and 3.47 and 5.45 and 5.98 at human GPR61 N137A (Untagged N137A, concentration -6); 4.06 and 2.30 and 2.96 and 2.25 and 3.21 on human GPR61 R140A (HiBit R140A, concentration -8.5). The “sensitivity of the receptor to inverse agonism in the cAMP assay” value on human GPR61 R140A (R140A mutant vs wild-type) is listed as “less sensitive”.

The record behind these values is article PMC10517971, “An inverse agonist of orphan receptor GPR61 acts by a G protein-competitive allosteric mechanism” (Nature Communications, 2023).
